Assay results reported in ChEMBL document CHEMBL5465560, “Selectivity Literature for EUbOPEN Chemogenomic Library” (2024).
Values belong to the molecule of their own block, whether it stands above or below them.

Experiments:
[1] = molecular target: T1, Serine/threonine-protein kinase 4 (Homo sapiens) (UniProt Q13043); assay: Selectivity interaction (Kinase panel (Z-LYTE Assay)) EUB0001632a STK4; conditions: at 10 µM
T1 sequence (whole entry): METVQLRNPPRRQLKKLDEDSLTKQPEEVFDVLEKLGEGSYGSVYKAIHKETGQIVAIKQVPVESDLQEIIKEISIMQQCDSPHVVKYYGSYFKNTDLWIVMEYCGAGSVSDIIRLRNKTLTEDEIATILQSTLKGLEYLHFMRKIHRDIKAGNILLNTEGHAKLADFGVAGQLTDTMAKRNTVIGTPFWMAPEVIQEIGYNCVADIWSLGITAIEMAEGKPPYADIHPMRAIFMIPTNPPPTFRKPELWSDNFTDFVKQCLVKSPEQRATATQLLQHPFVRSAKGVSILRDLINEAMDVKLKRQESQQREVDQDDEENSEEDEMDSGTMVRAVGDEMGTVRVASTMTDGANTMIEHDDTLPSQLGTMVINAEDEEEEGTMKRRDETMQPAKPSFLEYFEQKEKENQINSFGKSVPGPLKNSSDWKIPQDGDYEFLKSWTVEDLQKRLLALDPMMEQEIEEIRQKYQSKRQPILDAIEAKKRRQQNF

[2] = molecular target: T2, Serine/threonine-protein kinase ULK1 (Homo sapiens) (UniProt O75385); assay: Selectivity interaction (LanthaScreen Eu Kinase Binding Assay) EUB0001632a ULK1; conditions: at 10 µM
T2 sequence (whole entry): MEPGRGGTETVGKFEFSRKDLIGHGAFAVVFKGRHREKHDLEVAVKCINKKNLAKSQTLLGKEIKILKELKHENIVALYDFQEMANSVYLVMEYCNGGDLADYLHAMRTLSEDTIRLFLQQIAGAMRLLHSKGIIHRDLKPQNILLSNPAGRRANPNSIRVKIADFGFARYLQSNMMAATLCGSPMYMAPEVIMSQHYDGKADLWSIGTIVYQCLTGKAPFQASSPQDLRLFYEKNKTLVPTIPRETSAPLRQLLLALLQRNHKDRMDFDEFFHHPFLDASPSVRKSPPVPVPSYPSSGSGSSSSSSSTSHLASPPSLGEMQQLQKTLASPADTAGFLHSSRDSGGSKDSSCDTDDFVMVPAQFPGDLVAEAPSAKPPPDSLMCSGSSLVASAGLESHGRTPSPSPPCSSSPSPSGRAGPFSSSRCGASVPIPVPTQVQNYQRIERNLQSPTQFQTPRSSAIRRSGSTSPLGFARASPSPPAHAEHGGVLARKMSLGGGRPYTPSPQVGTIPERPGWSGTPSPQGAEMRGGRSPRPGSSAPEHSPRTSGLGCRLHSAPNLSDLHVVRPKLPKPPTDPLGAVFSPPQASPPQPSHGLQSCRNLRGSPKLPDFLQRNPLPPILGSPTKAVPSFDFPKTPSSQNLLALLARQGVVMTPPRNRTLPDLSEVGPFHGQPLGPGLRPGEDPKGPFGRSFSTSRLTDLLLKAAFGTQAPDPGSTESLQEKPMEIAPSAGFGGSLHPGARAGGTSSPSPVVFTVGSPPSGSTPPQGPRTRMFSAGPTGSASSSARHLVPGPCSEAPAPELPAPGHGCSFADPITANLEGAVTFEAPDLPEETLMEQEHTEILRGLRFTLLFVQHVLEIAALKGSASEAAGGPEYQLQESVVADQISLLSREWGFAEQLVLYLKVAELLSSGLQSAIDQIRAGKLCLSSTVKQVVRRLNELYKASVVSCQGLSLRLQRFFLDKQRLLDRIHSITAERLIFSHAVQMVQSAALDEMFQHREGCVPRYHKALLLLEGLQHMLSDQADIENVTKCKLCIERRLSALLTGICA

[3] = molecular target: T3, Uncharacterized serine/threonine-protein kinase SBK3 (Homo sapiens) (UniProt P0C264); assay: Selectivity interaction (KinomeScan (DiscoverX)) EUB0000666a SBK3; conditions: at 10 µM
T3 sequence (whole entry): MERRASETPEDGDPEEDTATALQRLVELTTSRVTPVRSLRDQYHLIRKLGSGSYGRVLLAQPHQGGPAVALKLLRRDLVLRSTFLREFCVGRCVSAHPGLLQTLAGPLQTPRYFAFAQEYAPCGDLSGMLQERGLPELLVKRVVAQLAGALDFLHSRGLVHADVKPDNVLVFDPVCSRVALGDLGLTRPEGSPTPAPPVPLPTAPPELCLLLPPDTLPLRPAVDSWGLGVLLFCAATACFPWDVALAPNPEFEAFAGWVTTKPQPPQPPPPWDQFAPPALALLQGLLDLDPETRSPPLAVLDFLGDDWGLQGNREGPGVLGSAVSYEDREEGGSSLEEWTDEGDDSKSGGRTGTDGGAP

[4] = molecular target: T4, Ephrin type-A receptor 8 (Homo sapiens) (UniProt P29322); assay: Selectivity interaction (Ambit KINOMEscan and KiNATiv profiling in Jurkat cells) EUB0000090b EPHA8; type: cell-based; conditions: at 1 µM
T4 sequence (whole entry): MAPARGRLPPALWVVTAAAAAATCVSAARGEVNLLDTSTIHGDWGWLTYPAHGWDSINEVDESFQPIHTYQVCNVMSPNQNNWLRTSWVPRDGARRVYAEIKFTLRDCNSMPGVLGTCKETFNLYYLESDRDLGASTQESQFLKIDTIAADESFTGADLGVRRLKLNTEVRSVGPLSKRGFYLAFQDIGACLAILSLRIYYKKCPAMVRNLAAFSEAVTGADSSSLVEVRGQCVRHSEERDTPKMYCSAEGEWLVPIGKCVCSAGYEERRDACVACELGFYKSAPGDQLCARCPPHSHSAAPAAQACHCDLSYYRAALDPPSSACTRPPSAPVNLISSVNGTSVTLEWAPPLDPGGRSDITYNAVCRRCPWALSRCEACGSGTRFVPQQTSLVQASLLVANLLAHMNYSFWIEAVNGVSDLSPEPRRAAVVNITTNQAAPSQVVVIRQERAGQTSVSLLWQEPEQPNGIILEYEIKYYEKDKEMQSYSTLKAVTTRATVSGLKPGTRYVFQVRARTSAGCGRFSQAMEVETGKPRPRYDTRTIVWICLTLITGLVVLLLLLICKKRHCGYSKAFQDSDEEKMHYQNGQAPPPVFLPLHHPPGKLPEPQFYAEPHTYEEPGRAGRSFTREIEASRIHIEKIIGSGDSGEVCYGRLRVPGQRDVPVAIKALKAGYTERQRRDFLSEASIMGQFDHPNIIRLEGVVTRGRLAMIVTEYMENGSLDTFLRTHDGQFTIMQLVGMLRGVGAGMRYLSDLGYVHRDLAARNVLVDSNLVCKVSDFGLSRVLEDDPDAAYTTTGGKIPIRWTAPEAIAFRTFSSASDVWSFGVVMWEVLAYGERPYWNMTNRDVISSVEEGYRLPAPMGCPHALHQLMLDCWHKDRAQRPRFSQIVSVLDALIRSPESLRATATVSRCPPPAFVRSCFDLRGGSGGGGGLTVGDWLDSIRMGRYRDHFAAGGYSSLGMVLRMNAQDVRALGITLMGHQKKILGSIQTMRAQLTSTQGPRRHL

[5] = molecular target: Death-associated protein kinase 3 (Homo sapiens) (UniProt O43293); assay: Selectivity interaction (KinomeScan (DiscoverX)) EUB0001619a DAPK3; conditions: at 1 µM
Sequence of Death-associated protein kinase 3 (Homo sapiens) (O43293 whole entry, looked up): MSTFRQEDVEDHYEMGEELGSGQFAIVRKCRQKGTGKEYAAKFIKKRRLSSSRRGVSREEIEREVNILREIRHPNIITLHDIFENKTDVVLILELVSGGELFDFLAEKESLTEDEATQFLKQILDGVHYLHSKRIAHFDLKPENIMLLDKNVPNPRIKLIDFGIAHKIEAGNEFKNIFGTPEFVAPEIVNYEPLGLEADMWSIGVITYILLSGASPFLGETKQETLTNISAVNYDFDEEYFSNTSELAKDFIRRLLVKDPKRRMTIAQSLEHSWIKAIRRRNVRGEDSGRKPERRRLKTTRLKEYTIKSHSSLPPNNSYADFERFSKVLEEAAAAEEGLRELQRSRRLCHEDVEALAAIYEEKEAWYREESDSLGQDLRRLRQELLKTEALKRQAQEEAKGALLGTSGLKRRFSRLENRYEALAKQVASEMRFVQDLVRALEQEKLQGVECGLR

% of control [1]: -9.12%
% of inhibition [2]: -7.27%
Structure (SMILES): Cn1cc(-n2cnc3c(NCc4nc5cc(Cl)c(Cl)cc5[nH]4)nc(N4CCOCC4)nc32)cn1

Structure (SMILES): O=C(NOC[C@H](O)CO)c1ccc(F)c(F)c1Nc1ccc(I)cc1F
% of control [3]: 100%

Structure (SMILES): CN(C)C/C=C/C(=O)Nc1ccc(C(=O)N2CCCC(Nc3ncc(Cl)c(-c4c[nH]c5ccccc45)n3)C2)cc1 (stereo not given)
% of control [4]: 89%

Structure (SMILES): N#Cc1cccc(-c2c[nH]c3ncnc(N4CCOCC4)c23)c1
% of control [5]: 100%
